The structures appear in SMILES notation. Non-standard residues stand in square brackets, D forms with d. Residues, ends and D or L forms follow the SMILES beside them.

The source of these data is patent US20250320247A1, “NOVEL D-AMINO ACID DERIVATIVE AND PHARMACEUTICAL COMPOSITION COMPRISING SAME” (SENELIX CO., LTD., priority 2022, published 2025).

Test [1] deals with dry eye syndrome-induced C57BL/6NHsd mice. Nature of the test: Dry eye syndrome model: tear volume by phenol red thread test. The conditions noted are these: 2 μL/eye, 3 times a day; for tear volume level vs normal control group (G1) / tear volume level vs induced control group (G2): days 5 and 10; for tear volume level vs induced control group (G2): p<0.001, p<0.01 or p<0.05. Format: in vivo. As to the method:
(§1) Dry eye syndrome was induced in specific pathogen-free (SPF) C57BL/6NHsd mice (male, 7 weeks old) [Koatech, Korea]. Specifically, during the dry eye syndrome induction period (from day −10 to day 0), scopolamine hydrobromide dissolved in physiological saline (PBS) was injected subcutaneously into the back skin of mice at a dose of 0.5 mg/0.2 mL, 4 times a day, for 10 days. After measuring the tear volume of the dry eye syndrome-induced mice, the mice were randomly divided into groups of G2 to G6 as shown in Table 1 so that the average tear volume of each group was distributed uniformly. G1 is a normal control group in which dry eye syndrome was not induced.
(§2) From the day of the induction of dry eye syndrome (day 0), the compound prepared in Example 2 as a test substance (i.e., acetate of the compound of the Chemical Formula 1b, hereinafter referred to as ‘Compound 1b’) was dissolved in physiological saline (PBS) at concentrations of 0.1% and 1% and dropped onto the center of the right cornea of the mice of G4 and G5 3 times a day for 10 days, respectively. G2 is a dry eye syndrome-induced control group. For G3, physiological saline (PBS) was dropped onto the center of the cornea of the right eye of the mice in which dry eye syndrome was induced. For G6 (positive control group), Restasis® ophthalmic solution (0.05%, containing cyclosporine) was dropped onto the center of the cornea of the right eye of the dry eye syndrome-induced mice.
Tear volume was measured by phenol red thread (PRT) test. Specifically, on days 5 and 10 after the start of the administration of the test substance, a phenol red thread was placed in the lateral canthus of the eye for 20 seconds and then tear volume (mm) was measured.
(§3) Statistical analysis was performed using Prism 7.04 (GraphPad Software Inc., San Diego, CA, USA), and a p-value smaller than 0.05 was judged to be statistically significant.

Test [2] shares this test system. The test can be described thus: Dry eye syndrome model: histopathological examination (H&E) of inflammation. In kind it is in vivo. The conditions noted are these: day 10; for level of inflammation and fibrosis vs G2 and G3 (histopathology): 2 μL/eye, 3 times a day for 10 days, p<0.001 or p<0.05. Here is the method:
as §1, §2
On the day of autopsy (day 10), the animal was euthanized and the eyeball was removed to include the conjunctiva and fixed in a 10% neutral buffered formalin solution. Samples for histopathological examination were prepared through the processes of trimming, dehydration, paraffin embedding and thin-sectioning of the fixed tissue, followed by hematoxylin and eosin (H&E) staining. Then, the infiltration of inflammatory cells into the cornea, conjunctiva and anterior chamber was evaluated by optical microscopy (Olympus BX53, Japan). The inflammation of the cornea and conjunctiva was assessed according to the known method. The scoring criteria were as follows. Scores: 0 (normal), 1 (mild), 2 (moderate), 3 (severe).
as §3

In the next test the test system is TNF-α. The test can be described thus: In-vitro anti-inflammatory test: TNF-α production by ELISA in LPS-treated macrophages (RAW 264.7). The conditions noted are these: RAW 264.7, LPS 100 ng/ml, test substance 1 μM and 10 μM, 24 hours, vs LPS-only control. Format: cell-based. Here is the method: (§4) Lipopolysaccharide (LPS)-treated macrophages (RAW 264.7) were treated with the compounds prepared in Examples 1 and 2 as test substances, respectively, and the change in the production of inflammatory cytokines (TNF-α and IL-1β) was measured by ELISA and western blotting, respectively.
Specifically, 1×10^4 macrophages (RAW 264.7) were dispensed in each well of a 96-well plate together with 0.1 mL of Dulbecco's modified Eagle's medium (DMEM) containing 10% FBS (GIBCO) and 1% penicillin/streptomycin. After incubation for 1 day in a 5% CO2 incubator at 37° C., when the confluency of the cells reached 80% or higher, LPS (100 ng/ml) and the test substance were treated at concentrations of 1 μM and 10 μM, respectively, and incubated for 24 hours. A control group was treated only with LPS (100 ng/ml) and incubated for 24 hours. The supernatant of each test group was prepared as a sample for ELISA analysis. The production of TNF-α was investigated using an ELISA assay kit (ELISA MAX Standard Set Human TNF-α; BioLegend, #430201) and a microplate reader at 450 nm according to the manufacturer's protocol.

Test [3] concerns dry eye syndrome-induced C57BL/6NHsd mice. The test can be described thus: Dry eye syndrome model: corneal fluorescein staining score (NEI grading). In kind it is in vivo. The conditions noted are these: 2 μL/eye, 3 times a day, day 5 to day 10; for corneal fluorescein staining score vs PBS group (G3): p<0.001 or p<0.01; for corneal fluorescein staining score vs normal control (G1): p<0.01 or p<0.05. Here is the method:
as §1, §2, §3

The subject of test [4] is corneal damage-induced Sprague-Dawley rats. The test can be described thus: Corneal damage model: histopathological examination (H&E) of inflammatory cell infiltration. In kind it is in vivo. The conditions noted are these: 10 μL/eye, 3 times a day for 7 days, day 7. As to the method: Corneal damage was induced in pathogen-free (SPF) Sprague-Dawley rats (male, 7 weeks old) [Koatech, Korea]. Specifically, after anesthetizing the rats, a filter paper soaked in 2 μL of 0.1 M NaOH solution was applied to the center of the cornea of the right eye for about 10 seconds, and then washed with physiological saline. The body weight of the corneal damage-induced rats was measured, and they were randomly divided into groups G2 to G6 as shown in Table 2 so that the average body weight of each group was distributed uniformly. G1 is a normal control group in which corneal damage was not induced. […]
On the day of autopsy (day 7), the animal was euthanized, and the eyeball was removed to include the conjunctiva and fixed in a 10% neutral buffered formalin solution. […] Then, the infiltration of inflammatory cells into the cornea, conjunctiva and anterior chamber was evaluated by optical microscopy (Olympus BX53, Japan). The infiltration of inflammatory cells into the corneal stroma and anterior chamber was evaluated according to the known method. […]

The next test concerns IL-1β. The test can be described thus: In-vitro anti-inflammatory test: IL-1β expression by western blotting in LPS-treated macrophages (RAW 264.7). Format: cell-based. The conditions noted are these: RAW 264.7, LPS 100 ng/ml, test substance 1 μM and 10 μM, 30 minutes, vs LPS-only control. Here is the method: as §4
In addition, […] macrophages (RAW 264.7) were dispensed in each well of a 96-well plate together with 0.1 mL of Dulbecco's modified Eagle's medium (DMEM) containing 10% FBS (GIBCO) and 1% penicillin/streptomycin. After incubation for 1 day in a 5% CO2 incubator at 37° C., when the confluency of the cells reached 80% or higher, LPS (100 ng/ml) and the test substance were treated at concentrations of 1 μM and 10 μM, respectively, and incubated for 30 minutes. A control group was treated only with LPS (100 ng/ml) and incubated for 30 minutes. The cells were lysed using an NP40 cell lysis buffer and quantified by Bradford assay. Then, the expression level of IL-1β was measured by western blotting.

Test [5] relates to corneal damage-induced Sprague-Dawley rats. The test can be described thus: Corneal damage model: corneal fluorescein staining score (NEI grading). In kind it is in vivo. The conditions noted are these: 10 μL/eye, 3 times a day; for corneal fluorescein staining score vs normal control group (G1): 6 hours to 5 days, p<0.01; for corneal fluorescein staining score vs induced control (G2): at 6 hours and on days 2 to 6, p<0.001, p<0.01 or p<0.05; for corneal fluorescein staining score vs PBS group (G3): days 3 to 6, p<0.001 or p<0.01. As to the method:
Corneal damage was induced in pathogen-free (SPF) Sprague-Dawley rats (male, 7 weeks old) [Koatech, Korea]. Specifically, after anesthetizing the rats, a filter paper soaked in 2 μL of 0.1 M NaOH solution was applied to the center of the cornea of the right eye for about 10 seconds, and then washed with physiological saline. The body weight of the corneal damage-induced rats was measured, and they were randomly divided into groups G2 to G6 as shown in Table 2 so that the average body weight of each group was distributed uniformly. G1 is a normal control group in which corneal damage was not induced.
From the day of the corneal damage (day 0), the compound prepared in Example 2 as a test substance (i.e., acetate of the compound of the Chemical Formula 1b, hereinafter referred to as ‘Compound 1b’) was dissolved in physiological saline (PBS) at concentrations of 0.1% and 1% and instilled into the eye of the mice of G4 and G5 at 10 μL/eye, 3 times a day, for 7 days. G2 is an induced control group in which corneal damage was induced. For G3, physiological saline (PBS) was instilled 10 into the eye of the corneal damage-induced rats. For G6 (positive control), Restasis® ophthalmic solution (0.05%, containing cyclosporine) was instilled into the eye of the corneal damage-induced rats.
as §3

Take `NC(=O)C[C@@H](NC(=O)[C@H](N)CC(=O)O)C(=O)N[C@H](CC(=O)O)C(N)=O` [Compound 1b] (H-[dD]-[dN]-[dD]-NH2): the “tear volume level vs PBS group (G3)” value in test [1] (G4: 0.1% in PBS, day 10, p<0.001) is “significantly higher than that of G3”; in test [1] (G5: 1% in PBS, day 5, p<0.01) it was “statistically significantly higher than that of G3”; in test [1] (G5: 1% in PBS, day 10, p<0.001), “significantly higher than that of G3”. Also, the “tear volume level vs normal control group (G1)” value in test [1] (G4: 0.1% in PBS, p<0.001) is listed as “statistically significantly lower than that of the normal control group (G1)”; in test [1] (G5: 1% in PBS, p<0.001), “statistically significantly lower than that of the normal control group (G1)”. The “tear volume level vs induced control group (G2)” value in test [1] (G4: 0.1% in PBS) and in test [1] (G5: 1% in PBS) was “significantly higher than that of G2” throughout. The “inflammation in the cornea and conjunctiva (histopathology)” value in test [2] (0.1% test substance-administered group) and in test [2] (1% test substance-administered group) was “no inflammation was observed” throughout. Besides, the “level of inflammation and fibrosis vs G2 and G3 (histopathology)” value is “significantly lower as compared to G2 and G3” in test [2] (G4: 0.1% in PBS); “significantly lower as compared to G2 and G3” in test [2] (G5: 1% in PBS). Also, the “secretion of inflammatory cytokine TNF-α” value with TNF-α is given as “inhibited in a concentration-dependent manner”. Further, the “corneal fluorescein staining score vs induced control (G2)” value in test [3] (G4: 0.1% in PBS), in test [3] (G5: 1% in PBS), in test [5] (G4: 0.1% in PBS) and in test [5] (G5: 1% in PBS) was “significantly lower than that of G2” each time. The “corneal fluorescein staining score vs PBS group (G3)” value in test [3] (G4: 0.1% in PBS) is listed as “statistically significantly lower than that of G3”; in test [3] (G5: 1% in PBS), “statistically significantly lower than that of G3”; in test [5] (G4: 0.1% in PBS), “significantly lower than that of G3”; in test [5] (G5: 1% in PBS), “significantly lower than that of G3”. Besides, the “corneal fluorescein staining score vs normal control (G1)” value in test [3] (G4: 0.1% in PBS) and in test [3] (G5: 1% in PBS) was “statistically significantly higher than that of G1” each time. For the same molecule, the “degree of infiltration of inflammatory cells into corneal keratocytes and anterior chamber vs G2 and G3” value in test [4] (G4: 0.1% in PBS) and in test [4] (G5: 1% in PBS) was “statistically significantly lower” throughout. The “expression of inflammatory cytokine IL-1β” value in the test on IL-1β was “inhibited in a concentration-dependent manner”. The “corneal fluorescein staining score vs normal control group (G1)” value in test [5] (G4: 0.1% in PBS) and in test [5] (G5: 1% in PBS) was “statistically significantly higher than that of the normal control group (G1)” throughout.

In the case of `NC(=O)C[C@@H](NC(=O)[C@H](N)CC(=O)O)C(=O)N[C@H](CC(=O)O)C(=O)O` [Chemical Formula 1a] (H-[dD]-[dN]-[dD]-OH), in the test with TNF-α, the “secretion of inflammatory cytokine TNF-α” value is recorded as “inhibited in a concentration-dependent manner”. Also, the “expression of inflammatory cytokine IL-1β” value in the test on IL-1β is on record as “inhibited in a concentration-dependent manner”.
